*1 amine or outer side, *2 acyl side, *3 side chain or, on linkers, in order; H or OH if unused. Where a SMILES comes first, the peptide text is derived from it. Bridges are numbered along the chain shown (N, C = ends). [ ]: non-standard residue; d: D form. 2Nal = N[C@@H](Cc1ccc2ccccc2c1)C(=O)O; AEF = NCCOc1ccc(C[C@H](N)C(=O)O)cc1; X1 = O=C(Cc1ccc(CN[*:1])cc1)[*:2]; 3Pal = N[C@@H](Cc1cccnc1)C(=O)O; Cit = NC(=O)NCCC[C@H](N)C(=O)O; αMeL = CC(C)C[C@](C)(N)C(=O)O; Orn = NCCC[C@H](N)C(=O)O; Dab = NCC[C@H](N)C(=O)O
Legend:
[1] = Peptide stability in simulated intestinal fluid (SIF); assay type: in vitro ADME; conditions: 37 °C, pH 6.8, porcine pancreatin 10 g/L, 10 µM; for remaining at 1 h, 10 µM / remaining at 4 h, 10 µM: pig, simulated intestinal fluid (SIF) with porcine pancreatin; for remaining at 4 h, 10 µM: read-out: SIF (% remaining 4 h)
Experimental: SGF was prepared by dissolving sodium chloride (0.2 g) in 50 mL of water. A volume of 0.7 mL of 10 M HCl was added to adjust the pH of the solution to 1.2 and the volume made up to 100 mL with water. […] SIF was prepared by dissolving monobasic potassium phosphate (0.68 g) in 50 mL of water and adjusting the pH to 6.8 with 1 M NaOH. The volume was subsequently made up to 100 mL with water. 200 mg porcine pancreatin (P1625, Sigma Aldrich) was gently dissolved into 20 mL preheated (37 °C) solution (10 g/L) immediately prior to the incubation.
The incubation was performed at 37 °C with gentle shaking. […] After the last timepoint, the sampling plate was mixed for 10 min on a shaking table and centrifuged 10 min at 2200 g. 70 µL resulting supernatant was diluted with 150 µL water, mixed and centrifugated before analysis by liquid chromatography high resolution mass spectrometry. […] Percent remaining at each timepoint was calculated relative to timepoint zero based on absolute peak areas.
Compounds with a SIF stability (after 4 h) above 70% are considered highly SIF stable.

[2] = molecular target: T1, human IL-23R (Homo sapiens, UniProt Q5VWK5); test: biochemical; conditions: for Emax: read-out: % displacement (hIL-23R binding)
T1 sequence (Q5VWK5 22-629): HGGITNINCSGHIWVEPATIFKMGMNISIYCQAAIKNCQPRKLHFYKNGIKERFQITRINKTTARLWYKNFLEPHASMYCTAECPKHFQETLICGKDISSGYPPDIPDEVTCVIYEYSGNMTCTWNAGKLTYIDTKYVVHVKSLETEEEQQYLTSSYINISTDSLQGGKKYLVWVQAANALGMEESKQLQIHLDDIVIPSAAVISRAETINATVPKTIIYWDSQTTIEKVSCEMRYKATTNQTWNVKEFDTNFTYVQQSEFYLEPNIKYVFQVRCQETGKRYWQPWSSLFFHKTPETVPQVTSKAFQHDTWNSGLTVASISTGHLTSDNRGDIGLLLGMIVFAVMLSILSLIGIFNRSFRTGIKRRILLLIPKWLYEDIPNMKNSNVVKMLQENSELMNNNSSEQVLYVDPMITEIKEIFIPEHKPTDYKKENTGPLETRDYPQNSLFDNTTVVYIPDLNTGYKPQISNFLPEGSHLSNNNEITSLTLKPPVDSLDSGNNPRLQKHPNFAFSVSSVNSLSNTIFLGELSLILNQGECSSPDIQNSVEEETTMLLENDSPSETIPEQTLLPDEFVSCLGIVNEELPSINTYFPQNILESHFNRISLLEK
Text: The compound binding affinity for IL-23R was estimated by the ability of compounds to displace a fluorophore-labelled reference compound from the human IL-23R. The assay principle relies on Bioluminescence Resonance Energy Transfer (BRET) between a fluorophore-labelled reference compound binding to the IL-23R part of a fusion protein consisting of the IL-23R fused to a Nanoluc luciferase enzyme (Nanoluc). The Nanoluc is placed in the N-terminus in close proximity to the binding domain of the ligand. Upon close proximity between the fluorophore of the fluorophore-labelled compound and the Nanoluc of the fusion protein, bioluminescence energy generated from conversion of a Nanoluc substrate, is transferred to the fluorophore resulting in an increase in BRET. In presence of an unlabelled compound, the unlabelled compound displaces the fluorophore-labelled peptide from its binding site resulting in a decrease in BRET. The concentration for which half of the fluorophore-labelled peptide is displaced by the unlabelled compound depends on the affinity of the compound for the IL-23R, and is termed the IC50 concentration.
The plasmid also contained a gene to confer resistance for the antibiotic hygromycin. A cell line stably expressing the Nluc-IL23R fusion protein was generated by transfection of HEK293 cells with the expression plasmid and selected with hygromycin for 3 weeks in Growth medium consisting of DMEM w/ Glutamax-I containing, 10% V/V FBS, 1% V/V P/S, 1 mM Sodium Pyruvate, and 1X NEAA, and 0.3 mg/mL hygromycin. The remaining cells were propagated and considered a stable expressing Nluc-IL23R fusion protein pool clone.
Cells expressing the Nluc-IL23R fusion protein were expanded in Growth medium and membranes prepared by homogenization of a cell pellet from 18 T175 flasks (4 °C in subsequent steps). The cell pellet was lysed Tris 10 mM, 7.5, 1 mM EDTA and protease inhibitors (Complete, Roche) and homogenized using a 15 mL glass-dounce by 50 strokes. The homogenate was spun at spin @1500 rpm for 10 min, the supernatant transferred to SV-34 tubes and spun at 40000g for 20 min at 4 °C to pellet the crude membranes. The supernatant was then removed, the pellet resuspended in 5 mL buffer containing 50 mM HEPES pH 7.4, 5 mM EGTA, and 5 mM MgCl2, and homogenized. Aliquots of the resuspended and homogenized membranes containing the Nluc-IL23R fusion protein were stored at -80 °C until use.
The plate was sealed with light impermeable plate seals, and incubated on an orbital shaker 400 rpm for 2 hours at room temperature. To determine the BRET ratio, the plate seal was removed and 25 µL of the Nanoluc substrate (Promega N1572) diluted 1:500 was added to each well and incubated for 1-2 minutes on an orbital shaker at 400 rpm. […] The BRET ratio was calculated as the fluorescence from the TAMRA/nanoluc bioluminescence.
Compound potency (IC50) and maximal displacement (% displacement) were estimated by computer-aided curve fitting using a 4-parameter logistic (4PL) non-linear model. […]
In this application, the inventors provide the data as IC50 values.

Row | SMILES | % displacement (hIL-23R binding) [2] [%] | IC50 [2] [nM] | remaining at 1 h, 10 µM [1] [%] | remaining at 4 h, 10 µM [1] [%] | Emax [2] [%] | SIF (% remaining 1 h) [1] [%] | SIF (% remaining 4 h) [1] [%]
1 | CC(C)C[C@@H]1NC(=O)[C@H](Cc2c[nH]c3ccccc23)NC(=O)[C@H](Cc2c[nH]c3ccccc23)NC(=O)[C@@H]2CSCC(=O)CSC[C@H](NC(=O)[C@H]([C@@H](C)O)NC(=O)[C@@H](NC(=O)CN)CSCC(=O)CSC[C@@H](C(=O)N[C@@H](CO)C(N)=O)NC1=O)C(=O)N[C@@H](Cc1c[nH]c3ccccc13)C(=O)N[C@@H](CCC(=O)O)C(=O)N2 (single isomer, unassigned) [I1 (isomer 3), H-GC(1a)TC(2a)WEC(2a)WWLC(1a)S-[NH2], reference compound] |  |  |  |  |  | 0 | 0
2 | CSCC[C@H](NC(=O)[C@@H]1CSCC(=O)CSC[C@H](NC(=O)[C@@H](N)CCC(=O)O)C(=O)N[C@@H](Cc2c[nH]c3ccccc23)C(=O)N[C@@H](CC(C)C)C(=O)N[C@H]2CSCC(=O)CSC[C@H](NC(=O)[C@H](CC(N)=O)NC(=O)[C@H](CCCNC(=N)N)NC(=O)[C@H](Cc3ccc(O)cc3)NC(=O)[C@H](Cc3ccc(O)cc3)NC2=O)C(=O)N[C@@H](CC(N)=O)C(=O)N1)C(N)=O (single isomer, unassigned) [I4 (isomer 3), H-EC(4a)WLC(5a)YYRNC(5a)NC(4a)M-[NH2], reference compound] |  |  |  |  |  | 0 | 0
3 | CNC(=O)[C@H](Cc1cccnc1)NC(=O)[C@H](CCN)NC(=O)[C@@H]1CCC(=O)NCc2ccc(cc2)CC(=O)N[C@@H](C)C(=O)N[C@H]2CCC(=O)NCC[C@H](NC(=O)[C@H](CCC(N)=O)NC(=O)[C@H](Cc3c[nH]c4ccccc34)NC2=O)C(=O)N[C@@H](Cc2ccc(OCCN)cc2)C(=O)N[C@@H](Cc2ccc3ccccc3c2)C(=O)N[C@@](C)(CC(C)C)C(=O)N1 [Compound 20, [4-Aminomethyl-phenylacetyl](1c)*AE(2c)WQ[Dab](2c)[Y(2-aminoethoxy)][2-Nal][2-Me-Leu]E(1c)[Dab][3-(3-Pyridyl)-Ala]-[NHMe]] | 97 | 0.012 | 109 | 90 |  |  | 
4 | CNC(=O)[C@H](Cc1cccnc1)NC(=O)[C@H](CCN)NC(=O)[C@@H]1CCC(=O)NCc2ccc(cc2)CC(=O)N[C@@H](Cc2ccccc2)C(=O)N[C@H]2CCC(=O)NCC[C@H](NC(=O)[C@H](CCC(N)=O)NC(=O)[C@H](Cc3c[nH]c4ccccc34)NC2=O)C(=O)N[C@@H](Cc2ccc(OCCN)cc2)C(=O)N[C@@H](Cc2ccc3ccccc3c2)C(=O)N[C@@](C)(CC(C)C)C(=O)N1 [Compound 21, [4-Aminomethyl-phenylacetyl](1c)*FE(2c)WQ[Dab](2c)[Y(2-aminoethoxy)][2-Nal][2-Me-Leu]E(1c)[Dab][3-(3-Pyridyl)-Ala]-[NHMe]] ([X1]FEWQ[Dab][AEF][2Nal][αMeL]E[Dab][3Pal]-NHMe; lactam 3-6, N-10) |  | 0.014 | 53 |  | 95 |  | 

Now from value to molecule, other results behind:

Row | % displacement (hIL-23R binding) [2] [%] | IC50 [2] [nM] | remaining at 1 h, 10 µM [1] [%] | remaining at 4 h, 10 µM [1] [%] | Emax [2] [%] | SMILES | SIF (% remaining 1 h) [1] [%] | SIF (% remaining 4 h) [1] [%]
5 |  | 0.015 |  | 91 | 95 | CNC(=O)[C@H](Cc1cccnc1)NC(=O)[C@H](CCN)NC(=O)[C@@H]1CCC(=O)NCc2ccc(cc2)CC(=O)N[C@@H](CO)C(=O)N[C@H]2CCC(=O)NCC[C@H](NC(=O)[C@H](CCCNC(N)=O)NC(=O)[C@H](Cc3c[nH]c4ccccc34)NC2=O)C(=O)N[C@@H](Cc2ccc(OCCN)cc2)C(=O)N[C@@H](Cc2ccc3ccccc3c2)C(=O)N[C@@](C)(CC(C)C)C(=O)N1 [Compound 26, [4-Aminomethyl-phenylacetyl](1c)*SE(2c)W[Cit][Dab](2c)[Y(2-aminoethoxy)][2-Nal][2-Me-Leu]E(1c)[Dab][3-(3-Pyridyl)-Ala]-[NHMe]] ([X1]SEW[Cit][Dab][AEF][2Nal][αMeL]E[Dab][3Pal]-NHMe; lactam 3-6, N-10) |  | 
6 | 97 |  |  | 110 |  | CNC(=O)[C@H](Cc1cccnc1)NC(=O)[C@H](CCN)NC(=O)[C@@H]1CCC(=O)NCc2ccc(cc2)CC(=O)N[C@@H](CO)C(=O)N[C@H]2CCC(=O)NCC[C@H](NC(=O)[C@H](CCCN)NC(=O)[C@H](Cc3c[nH]c4ccccc34)NC2=O)C(=O)N[C@@H](Cc2ccc(OCCN)cc2)C(=O)N[C@@H](Cc2ccc3ccccc3c2)C(=O)N[C@@](C)(CC(C)C)C(=O)N1 [Compound 28, [4-Aminomethyl-phenylacetyl](1c)*SE(2c)W[Orn][Dab](2c)[Y(2-aminoethoxy)][2-Nal][2-Me-Leu]E(1c)[Dab][3-(3-Pyridyl)-Ala]-[NHMe]] ([X1]SEW[Orn][Dab][AEF][2Nal][αMeL]E[Dab][3Pal]-NHMe; lactam 3-6, N-10) |  | 
7 | 96 |  |  | 92 |  | CNC(=O)CC[C@@H]1NC(=O)[C@H](Cc2c[nH]c3ccccc23)NC(=O)[C@@H]2CCC(=O)NCC[C@H](NC1=O)C(=O)N[C@@H](Cc1ccc(OCCN)cc1)C(=O)N[C@@H](Cc1ccc3ccccc3c1)C(=O)N[C@@](C)(CC(C)C)C(=O)N[C@H](C(=O)N[C@@H](CCN)C(=O)N[C@@H](Cc1cccnc1)C(=O)NC)CCC(=O)NCc1ccc(cc1)CC(=O)N[C@@H](CO)C(=O)N2 [Compound 29, [4-Aminomethyl-phenylacetyl](1c)*SE(2c)W[Q(Me)][Dab](2c)[Y(2-aminoethoxy)][2-Nal][2-Me-Leu]E(1c)[Dab][3-(3-Pyridyl)-Ala]-[NHMe]] ([X1]SEWE(NHMe)[Dab][AEF][2Nal][αMeL]E[Dab][3Pal]-NHMe; lactam 3-6, N-10) |  | 
8 | 104 | 0.018 |  | 94 |  | CNC(=O)[C@H](Cc1cccnc1)NC(=O)[C@H](CCN)NC(=O)[C@@H]1CCC(=O)NCc2ccc(cc2)CC(=O)N[C@@H](CO)C(=O)N[C@H]2CCC(=O)NCC[C@H](NC(=O)[C@H](CCC(=O)N(C)C)NC(=O)[C@H](Cc3c[nH]c4ccccc34)NC2=O)C(=O)N[C@@H](Cc2ccc(OCCN)cc2)C(=O)N[C@@H](Cc2ccc3ccccc3c2)C(=O)N[C@@](C)(CC(C)C)C(=O)N1 [Compound 30, [4-Aminomethyl-phenylacetyl](1c)*SE(2c)W[Q(2Me)][Dab](2c)[Y(2-aminoethoxy)][2-Nal][2-Me-Leu]E(1c)[Dab][3-(3-Pyridyl)-Ala]-[NHMe]] ([X1]SEWE(NMe2)[Dab][AEF][2Nal][αMeL]E[Dab][3Pal]-NHMe; lactam 3-6, N-10) |  | 

— patent EP4471049A1 (Zealand Pharma A/S, priority 2023, dated 2024)
